Measured values from PubChem BioAssay (NCI).
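Where inhibition never reached the appropriate level, the endpoint shown equals the highest concentration tested. Otherwise, values were interpolated linearly from a five-concentration, 48-hour dose response in 96-well plates. GI50 is the concentration that inhibits growth by half. TGI is the concentration that stops growth completely.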

Key:
Test in all cases: growth of human tumour cells (NCI), 48 h
[1] = system: SNB-19 CNS
[2] = system: HOP-92 NSCLC
[3] = system: KM12 colon
[4] = system: CAKI-1 renal
[5] = system: M14 melanoma
[6] = system: A498 renal
[7] = system: SF-268 CNS
[8] = system: OVCAR-8 ovarian
[9] = system: COLO 205 colon
[10] = system: IGROV1 ovarian

| SMILES | GI50 [1] [µM] | TGI [1] [µM] | GI50 [2] [µM] | TGI [2] [µM] | GI50 [3] [µM] | TGI [3] [µM] | GI50 [4] [µM] | TGI [4] [µM] | GI50 [5] [µM] | TGI [5] [µM] | GI50 [6] [µM] | TGI [6] [µM] | GI50 [7] [µM] | TGI [7] [µM] | GI50 [8] [µM] | TGI [8] [µM] | GI50 [9] [µM] | TGI [9] [µM] | GI50 [10] [µM] | TGI [10] [µM] |
| --- | --- | --- | --- | --- | --- | --- | --- | --- | --- | --- | --- | --- | --- | --- | --- | --- | --- | --- | --- | --- |
| Fc1cccc(Cl)c1Cn1c(-c2c(F)cccc2Cl)nc2ccccc21 | 18.4 | 48.1 | 13.9 | 38.5 | 14.6 | 42.4 | 24 | 47.5 | 19.4 | 53.9 | 19.2 | 36.6 | 15 | 32.6 | 17.3 | 37.8 | 17.5 | > 100 | 21.9 | > 100 |
| CC(=O)Nc1ccc(-c2csc(Nc3cccc(-c4csc(-c5ccccc5)n4)c3)n2)cc1 | 49.7 | > 50 | 42.9 | > 50 | 24 | > 50 | 17.5 | > 50 | 20.5 | > 50 | 46 | > 50 | 20 | > 50 | 15.6 | > 50 | 24.2 | > 50 | 21.5 | > 50 |
| O=C1/C(=C/c2ccc(Cl)cc2)CCC1CN1CCOCC1 (stereo not given) | – | 30.8 | – | 16.1 | – | 10.4 | – | 9.46 | – | 19.4 | – | 36 | – | 45.9 | – | 17.2 | – | > 25.3 | – | 10.5 |
| OCC(O)COc1c(Cl)cc(Cl)cc1Cl (stereo not given) | – | > 100 | – | > 100 | – | > 100 | – | > 100 | – | > 100 | – | > 100 | – | > 100 | – | > 100 | – | > 100 | – | > 100 |
| CC[C@H](C)[C@H](NC(=O)NC(C)(C)C)C(=O)N(C)[C@H](C[C@@H](OC(C)=O)c1nc(C(=O)N[C@@H](Cc2ccccc2)C[C@H](C)C(=O)OC)cs1)C(C)C | 1.12 | > 25 | 3 | > 25 | 0.682 | > 25 | 1.12 | > 25 | 0.476 | 2.08 | 0.154 | 4.31 | 0.867 | > 25 | 0.936 | > 25 | 0.446 | 1.12 | 0.556 | > 25 |
| O=C1CCCC(O)=C1SC1=C(O)CCCC1=O | – | > 100 | – | > 100 | – | > 100 | – | > 100 | – | > 100 | – | > 100 | – | > 100 | – | > 100 | – | > 100 | – | > 100 |
| O=C(c1nn(-c2ccc(Cl)cc2)cc1O)n1nc(C(F)(F)F)cc1-c1ccccc1 | 3.98 | > 100 | 1.67 | > 21.4 | 5.09 | > 100 | 1.89 | > 36.8 | 3.69 | > 52.2 | 5.93 | > 73.9 | 1.8 | > 100 | 1.87 | > 100 | 2.97 | > 44.2 | 0.921 | > 100 |
| Nc1nc(-c2ccc(Cl)cc2)cc(-c2ccc(Cl)cc2)c1-c1nc2ccccc2o1 | 19.6 | 41.4 | 6.24 | 21.2 | 12.2 | 27.2 | 20 | 35.9 | 17.4 | 34.4 | 19.6 | 34.6 | 14.5 | 34.1 | 18.4 | 36.3 | 21 | 39.5 | 16.1 | 34.3 |
